Test results as given in patent US11173145B2, “Compounds useful as inhibitors of indoleamine 2,3-dioxygenase and/or tryptophan dioxygenase” (Board of Regents, The University of Texas System, priority 2017, dated 2021).

Biological target: T1, IDO1 (Homo sapiens, UniProt P14902)
T1 construct: endogenous in cells; host or cells: HeLa cells (ATCC), IFNgamma-induced
Assay: IDO1 cell-based assay (HeLa cells, IFNgamma-induced, N-formylkynurenine/L-tryptophan by RFMS)
Details: 10 ng/mL IFNgamma, 24 hours
Procedure, shortened: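 HeLa cells stimulated with 10 ng/mL IFNgamma and exposed to compound (0.5% DMSO final) for 24 h at 37 °C. Conditioned media deproteinized, then N-formylkynurenine and L-tryptophan quantified by RapidFire MS with deuterated tryptophan internal standard; IC50 by curve fitting. Viability checked by CellTiter-Glo.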

T1 sequence (P14902 whole entry): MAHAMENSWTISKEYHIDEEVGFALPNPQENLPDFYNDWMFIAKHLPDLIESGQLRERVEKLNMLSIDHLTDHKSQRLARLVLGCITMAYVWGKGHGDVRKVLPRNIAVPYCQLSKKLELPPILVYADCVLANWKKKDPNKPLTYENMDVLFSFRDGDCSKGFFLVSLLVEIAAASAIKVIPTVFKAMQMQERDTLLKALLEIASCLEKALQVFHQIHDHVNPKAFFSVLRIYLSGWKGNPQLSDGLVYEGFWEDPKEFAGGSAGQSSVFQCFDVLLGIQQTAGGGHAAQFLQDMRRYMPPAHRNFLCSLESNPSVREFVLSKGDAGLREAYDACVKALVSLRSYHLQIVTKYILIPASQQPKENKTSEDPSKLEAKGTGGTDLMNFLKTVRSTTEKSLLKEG

SMILES | IC50
CC[C@@H](NC(=O)c1ccc(C#N)cc1)[C@H]1[C@@H]2C[C@@H](n3c(C)nc4ccc(Cl)cc43)C[C@@H]21 [Compound 294, N-((R)-1-((1R,3S,5S,6r)-3-(6-chloro-2-methyl-1H-benzo[d]imidazol-1-yl)bicyclo[3.1.0]hexan-6-yl)propyl)-4-cyanobenzamide] | < 200 nM
CCC(NC(=O)c1ccc(Cl)cc1)[C@H]1[C@@H]2C[C@@H](Oc3cc(F)ccc3F)C[C@@H]21 (stereo partly drawn) [Compound 42, 4-chloro-N-(1-((1R,3s,5S,6r)-3-(2,5-difluorophenoxy)bicyclo[3.1.0]hexan-6-yl)propyl)benzamide] | < 200 nM
COc1ccc(C(=O)NC(C)[C@H]2[C@@H]3C[C@@H](Oc4ncnc5ccc(F)cc45)C[C@@H]32)cn1 (stereo partly drawn) [Compound 115, N-(1-((1R,3s,5S,6r)-3-((6-fluoroquinazolin-4-yl)oxy)bicyclo[3.1.0]hexan-6-yl)ethyl)-6-methoxynicotinamide] | < 200 nM
CCC(NC(=O)c1ccc(Cl)cc1)[C@H]1[C@@H]2C[C@H](O)C[C@@H]21 (stereo partly drawn) [Compound 1, 4-chloro-N-(1-((1R,3r,5S,6r)-3-hydroxybicyclo[3.1.0]hexan-6-yl)propyl)benzamide] | 2000 to 5000 nM
O=C(NC(CCO)[C@H]1[C@@H]2C[C@@H](Oc3cnnc4ccccc34)C[C@@H]21)c1ccc(Cl)cc1 (stereo partly drawn) [Compound 139, 4-chloro-N-(1-((1R,3s,5S,6r)-3-(cinnolin-4-yloxy)bicyclo[3.1.0]hexan-6-yl)-3-hydroxypropyl)benzamide] | 200 to 2000 nM
CCC(NC(=O)c1ccc(Cl)cc1)[C@H]1[C@@H]2C[C@@H](N=[N+]=[N-])C[C@@H]21 (stereo partly drawn) [Compound 90, N-(1-((1R,3s,5S,6r)-3-azidobicyclo[3.1.0]hexan-6-yl)propyl)-4-chlorobenzamide] | 200 to 2000 nM
CC[C@@H](NC(=O)c1ccc(Cl)cc1)[C@H]1[C@@H]2C[C@@H](Nc3ccccc3C#N)C[C@@H]21 [Compound 331, 4-chloro-N—((R)-1-((1R,3S,5S, 6r)-3-((2-cyanophenyl)amino)bicyclo[3.1.0]hexan-6-yl)propyl)benzamide] | < 200 nM
CCC(NC(=O)c1ccc(Cl)cc1)[C@H]1[C@@H]2C[C@@H](Oc3c(F)cccc3F)C[C@@H]21 (stereo partly drawn) [Compound 44, 4-chloro-N-(1-((1R,3s,5S,6r)-3-(2,6-difluorophenoxy)bicyclo[3.1.0]hexan-6-yl)propyl)benzamide] | < 200 nM
CC[C@@H](NC(=O)c1ccc(F)cc1)[C@H]1[C@@H]2C[C@@H](n3cnc4cc(F)c(F)cc43)C[C@@H]21 [Compound 306, N—((R)-1-((3S,6s)-3-(5,6-difluoro-1H-benzo[d]imidazol-1-yl)bicyclo[3.1.0]hexan-6-yl)propyl)-4-fluorobenzamide] | < 200 nM
CC[C@@H](NC(=O)NC1COC1)[C@H]1[C@@H]2C[C@@H](n3cnc4cc(F)c(F)cc43)C[C@@H]21 [Compound 353, 1-((R)-1-((1R,3S,5S,6r)-3-(5,6-difluoro-1H-benzo[d]imidazol-1-yl)bicyclo[3.1.0]hexan-6-yl)propyl)-3-(oxetan-3-yl)urea] | > 5000 nM
CC[C@H](NC(=O)c1ccc(Cl)cc1)[C@H]1[C@@H]2C[C@@H](Oc3cnnc4ccccc34)C[C@@H]21 [Compound 103, 4-chloro-N-((S)-1-((1R,3R,5S,6r)-3-(cinnolin-4-yloxy)bicyclo[3.1.0]hexan-6-yl)propyl)benzamide] | < 200 nM
CCC(NC(=O)c1ccc(Cl)cc1)[C@H]1[C@@H]2C[C@@H](n3cnc4cc(Cl)ccc43)C[C@@H]21 (stereo partly drawn) [Compound 272, 4-chloro-N-(1-((1R,3s,5S,6r)-3-(5-chloro-1H-benzo[d]imidazol-1-yl)bicyclo[3.1.0]hexan-6-yl)propyl)benzamide] | < 200 nM
CCC(NC(=O)c1ccc2c(c1)OC(F)(F)O2)C1C2CC(Oc3ncnc4ccc(F)cc34)CC21 [Compound 69, 2,2-difluoro-N-(1-((1R,3s,5S,6r)-3-((6-fluoroquinazolin-4-yl)oxy)bicyclo[3.1.0]hexan-6-yl)propyl)benzo[d][1,3]dioxole-5-carboxamide] | < 200 nM
CCC(NC(=O)c1ccc(Cl)cc1)[C@H]1[C@@H]2C[C@@H](n3cc(C(=O)O)nn3)C[C@@H]21 (stereo partly drawn) [Compound 94, 1-((1R,3s,5S,6r)-6-(1-(4-chlorobenzamido)propyl)bicyclo[3.1.0]hexan-3-yl)-1H-1,2,3-triazole-4-carboxylic acid] | > 5000 nM
CCC(NC(=O)c1ccc(Cl)cc1)[C@H]1[C@@H]2C[C@@H](NS(=O)(=O)c3ccccc3)C[C@@H]21 (stereo partly drawn) [Compound 116, 4-chloro-N-(1-((1R,3s,5S,6r)-3-(phenylsulfonamido)bicyclo[3.1.0]hexan-6-yl)propyl)benzamide] | 200 to 2000 nM
CC(NC(=O)c1ccc(C#N)cc1)[C@H]1[C@@H]2C[C@@H](n3cnc4ccc(F)cc4c3=O)C[C@@H]21 (stereo partly drawn) [Compound 108, 4-cyano-N-(1-((1R,3s,5S,6r)-3-(6-fluoro-4-oxoquinazolin-3(4H)-yl)bicyclo[3.1.0]hexan-6-yl)ethyl)benzamide] | < 200 nM
CC(NC(=O)c1ccc(Cl)cc1)[C@H]1[C@@H]2C[C@@H](Oc3ncnc4ccc(F)cc34)C[C@@H]21 (stereo partly drawn) [Compound 64, 4-chloro-N-(1-((1R,3s,5S,6r)-3-((6-fluoroquinazolin-4-yl)oxy)bicyclo[3.1.0]hexan-6-yl)ethyl)benzamide] | < 200 nM
CCC(NC(=O)c1ccc(Cl)cc1)C1C2CC(OCC3CCOCC3)CC21 [Compound 96, 4-chloro-N-(1-((1R,3s,5S,6r)-3-((tetrahydro-2H-pyran-4-yl)methoxy)bicyclo[3.1.0]hexan-6-yl)propyl)benzamide] | < 200 nM
O=C(Cc1ccc(Cl)cc1)N[C@H]1[C@@H]2C[C@@H](Oc3ncnc4ccc(F)cc34)C[C@@H]21 [Compound 61, 2-(4-chlorophenyl)-N-((1R,3s,5S,6r)-3-((6-fluoroquinazolin-4-yl)oxy)bicyclo[3.1.0]hexan-6-yl)acetamide] | < 200 nM
CCC(NC(=O)c1ccc(Cl)cc1)[C@H]1[C@@H]2C[C@@H](Oc3ccccc3CN(C)C)C[C@@H]21 (stereo partly drawn) [Compound 48, 4-chloro-N-(1-((1R,3s,5S,6r)-3-(2-((dimethylamino)methyl)phenoxy)bicyclo[3.1.0]hexan-6-yl)propyl)benzamide] | 2000 to 5000 nM
CCC(NC(=O)c1ccc(Cl)cc1)[C@H]1[C@@H]2C[C@@H](Oc3ccc(F)nc3)C[C@@H]21 (stereo partly drawn) [Compound 18, 4-chloro-N-(1-((1R,3s,5S,6r)-3-((6-fluoropyridin-3-yl)oxy)bicyclo[3.1.0]hexan-6-yl)propyl)benzamide] | < 200 nM

Further lines, results first:

IC50 | SMILES
< 200 nM | CCC(NC(=O)c1ccc(Cl)cc1)[C@H]1[C@@H]2C[C@@H](Oc3c(Cl)ccnc3C)C[C@@H]21 (stereo partly drawn) [Compound 92, 4-chloro-N-(1-((1R,3s,5S,6r)-3-((4-chloro-2-methylpyridin-3-yl)oxy)bicyclo[3.1.0]hexan-6-yl)propyl)benzamide]
< 200 nM | C[C@@H](C(=O)Nc1ccc(Cl)cc1)[C@H]1[C@@H]2C[C@@H](n3cnc4cc(F)c(F)cc43)C[C@@H]21 [Compound 298, (R)-N-(4-chlorophenyl)-2-((1R,3S,5S,6r)-3-(5,6-difluoro-1H-benzo[d]imidazol-1-yl)bicyclo[3.1.0]hexan-6-yl)propanamide]
< 200 nM | CC[C@@H](NC(=O)c1ccc(Cl)cc1)[C@H]1[C@@H]2C[C@@H](n3cc(C#N)cn3)C[C@@H]21 [Compound 325, 4-chloro-N-((R)-1-((1R,3S,5S,6r)-3-(4-cyano-1H-pyrazol-1-yl)bicyclo[3.1.0]hexan-6-yl)propyl)benzamide]
200 to 2000 nM | CCC(NC(=O)c1ccc(Cl)cc1)[C@H]1[C@@H]2C[C@@H](n3cncn3)C[C@@H]21 (stereo partly drawn) [Compound 81, N-(1-((1R,3s,5S,6r)-3-(1H-1,2,4-triazol-1-yl)bicyclo[3.1.0]hexan-6-yl)propyl)-4-chlorobenzamide]
< 200 nM | CC[C@@H](NC(=O)c1ccc(Cl)cc1)[C@H]1[C@@H]2C[C@@H](n3ccc(C4CC4)n3)C[C@@H]21 [Compound 343, 4-chloro-N-((R)-1-((1R,3S,5S,6r)-3-(3-cyclopropyl-1H-pyrazol-1-yl)bicyclo[3.1.0]hexan-6-yl)propyl)benzamide]
< 200 nM | CCC(NC(=O)c1ccc(C#N)cc1)[C@H]1[C@@H]2C[C@@H](Oc3ncnc4ccc(F)cc34)C[C@@H]21 (stereo partly drawn) [Compound 66, 4-cyano-N-(1-((1R,3s,5S,6r)-3-((6-fluoroquinazolin-4-yl)oxy)bicyclo[3.1.0]hexan-6-yl)propyl)benzamide]
200 to 2000 nM | O=C(Cc1ccc(Cl)cc1)NC1[C@H]2CC(Oc3ccnc4ccc(F)cc34)C[C@@H]12 (stereo partly drawn) [Compound 31, 2-(4-chlorophenyl)-N-((1R,3r,5S)-3-((6-fluoroquinolin-4-yl)oxy)bicyclo[3.1.0]hexan-6-yl)acetamide]
> 5000 nM | O=C(O)CC(NC(=O)c1ccc(Cl)cc1)[C@H]1[C@@H]2C[C@@H](Oc3ncnc4ccc(F)cc34)C[C@@H]21 (stereo partly drawn) [Compound 148, 3-(4-chlorobenzamido)-3-((1R,3s,5S,6r)-3-((6-fluoroquinazolin-4-yl)oxy)bicyclo[3.1.0]hexan-6-yl)propanoic acid]
< 200 nM | CC[C@@H](NC(=O)Nc1ccc(Cl)cc1)[C@H]1[C@@H]2C[C@@H](n3cnc4cc(F)c(F)cc43)C[C@@H]21 [Compound 344, 1-(4-chlorophenyl)-3-((R)-1-((1R,3S,5S,6r)-3-(5,6-difluoro-1H-benzo[d]imidazol-1-yl)bicyclo[3.1.0]hexan-6-yl)propyl)urea]
< 200 nM | CCC(NC(=O)c1ccc(Cl)cc1)[C@H]1[C@@H]2C[C@@H](Oc3cc(C)nc4ccc(F)cc34)C[C@@H]21 (stereo partly drawn) [Compound 20, 4-chloro-N-(1-((1R,3s,5S,6r)-3-((6-fluoro-2-methylquinolin-4-yl)oxy)bicyclo[3.1.0]hexan-6-yl)propyl)benzamide]
< 200 nM | O=C(Cc1ccc(Cl)cc1)NC1[C@H]2CC(Oc3ccnc4ccccc34)C[C@@H]12 (stereo partly drawn) [Compound 30, 2-(4-chlorophenyl)-N-((1R,5S)-3-(quinolin-4-yloxy)bicyclo[3.1.0]hexan-6-yl)acetamide]
